Measured values: publication PMC6792352, “Limited Chemical Structural Diversity Found to Modulate Thyroid Hormone Receptor in the Tox21 Chemical Library” (Environmental Health Perspectives, 2019)
Structures can show the parent of a compound that is named as a salt.

Assay: in vitro
Conditions: rat, gh3-tre-luc cells

SMILES | CC50 at 24 h (AC50 (uM) modified / 1000) [µM] | other results
COc1ccc(N)cc1 [4-Methoxyaniline hydrochloride] |  | CC50 at 24 h (AC50 (uM) modified / 1000, Tox21_110001=Tox21_201498, viability, 1 nM T3 present, 24 h): > 90 µM
CCCCCCOC(C)=O [Hexyl acetate] | > 90 | 
CCN(CC)CCNC(=O)c1ccc(NC(C)=O)cc1 [Acecainide hydrochloride] | > 50 | 
Cc1ccc(Cl)cc1 [4-Chlorotoluene] | > 100 | 
CCOC(=O)/C=C/c1ccccc1 [Ethyl cinnamate] | > 90 | 
CCCCCC[C@@H](CCC)C(=O)O [(2R)-2-Propyloctanoic acid] | > 50 | 
Cn1c(NCCN(CCO)CCCc2ccc([N+](=O)[O-])cc2)cc(=O)n(C)c1=O [Nifekalant hydrochloride] | > 50 | 
c1coc(CNc2ncnc3[nH]cnc23)c1 [Kinetin] | > 90 | 
Oc1ccc2ccccc2c1 [2-Naphthalenol] | > 90 | 
COC(=O)CC(C)=O [Methyl acetoacetate] | > 90 | 
CCCCc1c(C)nc(NCC)nc1OS(=O)(=O)N(C)C [Bupirimate] | > 90 | 
CCc1ccc(C(c2ccc(CC)cc2)C(Cl)Cl)cc1 [p,p'-Ethyl-DDD] | 82.4 | 
NC(Cc1c[nH]c2ccccc12)C(=O)O (racemic) [dl-Tryptophan] | > 50 | 
CO/N=C(\C(=O)N[C@@H]1C(=O)N2C(C(=O)O)=C(CSc3nnnn3C)CS[C@H]12)c1csc(N)n1 [Cefmenoxime hydrochloride] | > 50 | 
O=C(Oc1ccccc1)c1ccccc1 [Phenyl benzoate] | > 90 | 
CCCCCCCCP(=O)(O)O [Octylphosphonic acid] |  | CC50 at 24 h (AC50 (uM) modified / 1000, Tox21_110001=Tox21_302242, viability, 1 nM T3 present, 24 h): > 90 µM
Oc1ccc(O)c2c(O)cccc12 [1,4,5-Trihydroxynaphthalene] | > 90 | 
O=C(c1ccc(OCCN2CCCCC2)cc1)c1c(-c2ccc(O)cc2)sc2cc(O)ccc12 [Raloxifene] | 3.84 | 
O=c1cc[nH]c(=S)[nH]1 [Thiouracil] | > 90 | 
CCOC(=O)c1ccc(C#Cc2ccc3c(c2)C(C)(C)CCS3)nc1 [Tazarotene] | > 50 | 
CCCCOCCOC(=O)COc1ccc(Cl)cc1Cl [2,4-D-Butotyl] | > 90 | 

SMILES | CC50 at 24 h (AC50 (uM) modified / 1000) [µM] | other results
CCCCCCCCCCCCCCCCCCOCC(O)CO (stereo not drawn) [3-(Octadecyloxy)-1,2-propanediol] | > 50 | 
C=C(C)C(=O)OCC(C)C [Isobutyl methacrylate] | > 90 | 
CCCCCC(=O)CC [3-Octanone] | > 90 | 
C[C@]12CCC(=O)C=C1CC[C@H]1[C@@H]3CC[C@](O)(C(=O)CO)[C@@]3(C)C[C@H](O)[C@@]12F [Fludrocortisone] | > 50 | 
ClCC=CCCl [1,4-Dichloro-2-butene] | > 90 | 
FC(F)(F)C(Cl)(Cl)Cl [1,1,1-Trichloro-2,2,2-trifluoroethane] | > 90 | 
COC(=O)CC(=O)OC [Dimethyl malonate] | > 100 | 
CCN(Cc1cccc(S(=O)(=O)O)c1)c1ccc(C(=C2C=CC(=[N+](CC)Cc3cccc(S(=O)(=O)[O-])c3)C=C2)c2ccccc2)cc1 [FD&C Green No. 1] | > 70 | 
Cc1nn(C)c(Oc2ccccc2)c1C=NOCc1ccc(C(=O)OC(C)(C)C)cc1 [Fenpyroximate (Z,E)] | 59.7 | 
CCCc1ncc(C[n+]2ccccc2C)c(N)n1 [Amprolium hydrochloride] | > 20 | 
CCC1COC(Cn2cncn2)(c2ccc(Cl)cc2Cl)O1 (stereo not drawn) [Etaconazole] |  | CC50 at 24 h (AC50 (uM) modified / 1000, Tox21_110001=Tox21_301568, viability, 1 nM T3 present, 24 h): > 90 µM
O=CC=C(c1ccccc1)c1ccccc1 [3,3-Diphenylacrylaldehyde] | 42.2 | 
CCCCCOc1ccc(C2SC(=O)NC2=O)cc1OCC (stereo not drawn) [Risarestat] | > 50 | 
CO [Methanol] | > 90 | 
COc1ccccc1NC(=O)CC(C)=O [N-(2-Methoxyphenyl)-3-oxobutanamide] | > 90 | 
O=C1OC(c2cc(I)c(O)c(I)c2)(c2cc(I)c(O)c(I)c2)c2ccccc21 [Iodophthalein] | 36.2 | 
CC(=O)C1(C)CC2=C(CCCC2(C)C)CC1C (stereo not drawn) [Isocyclemone E] | > 90 | 
FC(F)(F)C(=NOCC1OCCO1)c1ccc(Cl)cc1 [Fluxofenim] | > 90 | 
COC1=CC=C2[C@H]3Cc4ccc(OC)c5c4[C@@]2(CCN3C)[C@H]1O5 [Thebaine] |  | CC50 at 24 h (AC50 (uM) modified / 1000, Tox21_110001=Tox21_111751, viability, 1 nM T3 present, 24 h): > 20 µM; CC50 at 24 h (AC50 (uM) modified / 1000, Tox21_110001=Tox21_112863, viability, 1 nM T3 present, 24 h): > 90 µM
CCc1cccc(O)c1 [3-Ethylphenol] | > 90 | 
C[C@@H]1CCC[C@H](C)N1NC(=O)c1ccc(Cl)c(S(N)(=O)=O)c1 [Clopamide] | > 20 | 

SMILES | CC50 at 24 h (AC50 (uM) modified / 1000) [µM] | other results
CCOc1ccc(/N=C(\C)Nc2ccc(OCC)cc2)cc1 [Phenacaine] | > 50 | 
c1ccc2c(c1)-c1cccc3c1c-2cc1ccccc13 [Benzo(b)fluoranthene] | > 90 | 
O=C(Nc1ccccc1-c1ccc(Cl)cc1)c1cccnc1Cl [Boscalid] | > 100 | 
O=C(O)CCCCCCCCCCCBr [12-Bromododecanoic acid] | > 90 | 
CC(=O)N(O)CCCCCNC(=O)CCC(=O)N(O)CCCCCNC(=O)CCC(=O)N(O)CCCCCN [Deferoxamine mesylate] | > 20 | 
CCC(COC(=O)c1cc(OC)c(OC)c(OC)c1)(c1ccccc1)N(C)C (stereo not drawn) [Trimebutine maleate] | > 50 | 
C[C@]12C=CC(=O)C=C1CC[C@@H]1[C@@H]2CC[C@]2(C)OC(=O)CC[C@@H]12 [Testolactone] |  | CC50 at 24 h (AC50 (uM) modified / 1000, Tox21_110001=Tox21_111576, viability, 1 nM T3 present, 24 h): > 50 µM
CCN[C@@H]1C[C@H](N)[C@@H](O[C@H]2OC(CN)=CC[C@H]2N)[C@H](O)[C@H]1O[C@H]1OC[C@](C)(O)[C@H](NC)[C@H]1O [Netilmicin sulfate] | > 50 | 
CCNC(=O)NCCCOc1cccc(CN2CCCCC2)c1 [Dalcotidine] | > 50 | 
O=C(O)c1cc(-c2ccccc2)nc2ccccc12 [Cinchophen] | > 50 | 
CCC1NC(=O)c2cc(S(N)(=O)=O)c(Cl)cc2N1 (stereo not drawn) [Quinethazone] | > 20 | 
Nc1n[nH]c(N)n1 [Guanazole] | > 90 | 
COc1cc2c3cc1Oc1cc(ccc1O)C[C@@H]1c4c(cc(OC)c(O)c4Oc4ccc(cc4)C[C@@H]3N(C)CC2)CC[N+]1(C)C [(+)-Tubocurarine chloride hydrochloride] | > 50 | 
C=CCSSCC=C [Diallyl disulfide] | > 90 | 
CC/C(=C(/CC)c1ccc(OP(=O)(O)O)cc1)c1ccc(OP(=O)(O)O)cc1 [Diethylstilbestrol diphosphate] | > 50 | 
COCC(=O)O [Methoxyacetic acid] | > 90 | 
Cc1ccc2c(c1[N+](=O)[O-])C(=O)c1ccccc1C2=O [2-Methyl-1-nitroanthraquinone] | 38.7 | 
C=C(C)C(=O)OCCN(C)C [2-(Dimethylamino)ethyl methacrylate] | > 90 | 
Cc1ccc(O)cc1 [p-Cresol] | > 100 | 
Cc1cccc(N=Nc2ccc(N(C)C)cc2)c1 [3'-Methyl-4-dimethylaminoazobenzene] |  | CC50 at 24 h (AC50 (uM) modified / 1000, Tox21_110001=Tox21_201755, viability, 1 nM T3 present, 24 h): 72.8 µM; CC50 at 24 h (AC50 (uM) modified / 1000, Tox21_110001=Tox21_303022, viability, 1 nM T3 present, 24 h): > 90 µM
CCCCCCC(C)O (stereo not drawn) [2-Octanol] | > 90 | 

SMILES | CC50 at 24 h (AC50 (uM) modified / 1000) [µM] | other results
CO/N=C(\C(=O)N[C@@H]1C(=O)N2C(C(=O)[O-])=C(C[n+]3ccn4ncccc43)CS[C@H]12)c1nsc(N)n1 [Cefozopran hydrochloride] | > 50 | 
CCN(Cc1cccc(S(=O)(=O)O)c1)c1ccc(C(=C2C=CC(=[N+](CC)Cc3cccc(S(=O)(=O)O)c3)C=C2)c2ccccc2S(=O)(=O)[O-])cc1 [FD&C Blue No. 1] | 50.7 | 
CN(C)CCN(C)CCO [2-{[2-(Dimethylamino)ethyl](methyl)amino}ethanol] | > 90 | 
CSc1ccc(C=O)cc1 [4-(Methylthio)benzaldehyde] | > 90 | 
CCOC(=O)C(Br)c1ccccc1 (stereo not drawn) [Ethyl bromophenylacetate] | > 90 | 
CC(O)CN (stereo not drawn) [1-Amino-2-propanol] | > 90 | 
CCCCCC(=O)OCC [Ethyl hexanoate] | > 90 | 
CCCCSP(=O)(SCCCC)SCCCC [Tribufos] |  | CC50 at 24 h (AC50 (uM) modified / 1000, Tox21_110001=Tox21_201934, viability, 1 nM T3 present, 24 h): > 90 µM
CC1COc2ccccc2N1 (stereo not drawn) [3-Methyl-3,4-dihydro-2H-1,4-benzoxazine] | > 90 | 
Cc1ccc(C(C)C)cc1O [Isopropyl-o-cresol] | > 90 | 
C=CC(OCC)OCC [Acrolein diethylacetal] | > 90 | 
CC(Cc1ccc2c(c1)OCO2)NO (stereo not drawn) [1-(1,3-Benzodioxol-5-yl)-N-hydroxypropan-2-amine hydrochloride] |  | CC50 at 24 h (AC50 (uM) modified / 1000, Tox21_110001=Tox21_112852, viability, 1 nM T3 present, 24 h): > 100 µM
NC(=O)N1c2ccccc2C=Cc2ccccc21 [Carbamazepine] | > 90 | 
COc1cccc(Br)c1 [1-Bromo-3-methoxybenzene] | > 90 | 
CCNc1cc(O)ccc1C [3-Ethylamino-4-methylphenol] | > 90 | 
Cc1[nH]c(=O)n(C(C)(C)C)c(=O)c1Cl [Terbacil] | > 90 | 
Nc1ccc(Cl)cc1Cl [2,4-Dichloroaniline] | > 90 | 
CC(C)CC(C)CC(O)CC(C)C (stereo not drawn) [2,6,8-Trimethyl-4-nonanol] | > 90 | 
O[C@H]1[C@H](O)[C@@H](O)[C@H](O)[C@@H](O)[C@H]1O [myo-Inositol] | > 90 | 
